Tested on: skin
Test: application on the skin against injuries caused by solar/UV radiation
Assay type: in vivo
Settings: persists in the presence of sunscreens

Structure (SMILES): CC(C)c1cc2c(c(C(C)C)c1)[O][Cu]1([O]C2=O)[O]C(=O)c2cc(C(C)C)cc(C(C)C)c2[O]1 [copper (II) bis(3,5-diisopropylsalicylate)]
- intensity of the solar erythema: reduced
- number of degraded keratinocytes: reduced

From patent US6419907B1, “Use of cupric complex of 3,5-disopropylsalicylic acid by way of a cosmetic product and cosmetic compositions containing this compound for protecting the human epidermis against UV radiation” (L'Oreal, priority 1987, dated 2002)
